# Source: ChEMBL document CHEMBL1201862, “PubChem BioAssay data set” (2004)
# The source made the active and inactive calls. Cut-off read from the data, not from the text of the source: actives have a measured IC50 and inactives only a lower limit.
# Tests used:
# Format in all cases: functional
# Caspase-3 = target: T1, Caspase-3 (Homo sapiens, UniProt P42574);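 note: Dose-response selectivity test against caspase-3 for candidate inhibitors of sentrin-specific proteases (SENPs)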
# T1 sequence (P42574 whole entry): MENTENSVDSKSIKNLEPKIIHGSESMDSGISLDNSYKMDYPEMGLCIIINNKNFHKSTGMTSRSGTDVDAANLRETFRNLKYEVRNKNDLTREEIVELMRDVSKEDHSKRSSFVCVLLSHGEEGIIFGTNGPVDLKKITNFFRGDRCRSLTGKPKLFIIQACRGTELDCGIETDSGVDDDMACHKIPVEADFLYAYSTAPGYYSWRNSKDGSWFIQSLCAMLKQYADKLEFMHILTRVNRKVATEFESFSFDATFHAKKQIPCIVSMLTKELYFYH
# [1] = target: T2, Sentrin-specific protease 8 (Homo sapiens, UniProt Q96LD8);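 note: luminescence read-out of SENP8 inhibition, dose-response confirmation following an ultra-high-throughput screen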
# T2 sequence (Q96LD8 whole entry): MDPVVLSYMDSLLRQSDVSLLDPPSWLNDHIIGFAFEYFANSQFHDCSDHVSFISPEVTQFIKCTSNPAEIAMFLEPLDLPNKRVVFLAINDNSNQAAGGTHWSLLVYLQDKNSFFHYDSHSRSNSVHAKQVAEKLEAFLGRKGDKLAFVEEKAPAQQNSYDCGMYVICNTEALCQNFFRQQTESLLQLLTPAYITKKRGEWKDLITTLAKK
# Prothrombin = Prothrombin (Bos taurus, UniProt P00735); assay: thrombin protease inhibitors – biochemical, fluorescence polarization, uHTS hits, dose response (AID 602369)
IC50 (Caspase-3),SMILES,IC50 [1],IC50 (Prothrombin)
65.8 µM (active),CC(=O)N(/N=C1\Sc2ccccc2C1=O)c1cccc(C)c1,11.7 µM (active),
,O=[N+]([O-])c1ccc(N/N=C/c2ccc[nH]2)cc1,,9.84 µM (active)
